Measurements published in US9346758B2, “Pyridinone compounds for use in photodynamic therapy” (UNIVERSITY OF EXETER, priority 2012, dated 2016).
Several values for one entry are separate records, joined by “and”; a condition that tells them apart may be missing. Equal entries are not always repeated.

Experiments:
[1] = tested on: human epithelial squamous cell carcinoma cells (A431); assay: PpIX fluorescence accumulation; conditions: for PpIX accumulation: A431 cells, hydrochloride;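 for all read-outs here: PpIX fluorescence accumulating inside A431 cells, read under dim light to limit photobleaching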
Method: (§1) Briefly, cells were seeded at 2×10^4 cells per well in a 96 well plate and left to adhere overnight. Test solutions were prepared on the day of the assay and applied to the cells. The level of PpIX produced was monitored using a multi-well fluorescent plate reader with a 400 (±30) nm excitation filter and a 645 (±40) nm emission filter, with the level of fluorescence produced being directly proportional to the level of PpIX present. Readings were taken hourly for 6 hours and were conducted under low light conditions to reduce photobleaching of PpIX.
(§2) These were tested alongside equimolar concentrations of ALA, ALA and CP94 (3), MAL, and MAL and CP94 (3), with all test compounds being investigated in human dermal fibroblasts (84BR; FIGS. 2A and 2B), human epithelial squamous cell carcinoma cells (A431; FIGS. 3A and 3B) and human glioblastoma cells (U87MG; FIGS. 4A and 4B).

[2] = tested on: human dermal fibroblasts (84BR); assay: PDT efficacy: cell viability (NRU assay) following irradiation; conditions: 84BR; lowest concentration employed (250 μM)
Method: (§3) To assess the effect of AP2-18 (8) on PpIX-induced PDT efficacy, the same three cell types were exposed to equimolar concentrations of ALA, ALA and CP94 (3), MAL, MAL and CP94 (3), and AP2-18 (8) (as described previously) and incubated in the dark for 4 hours. The level of PpIX accumulation was then quantified as before, prior to irradiation with red light (37 J/cm^2; 635±2 nm; Aktilite, Galderma, UK).

[3] = tested on: human dermal fibroblasts (84BR); assay: PpIX fluorescence accumulation; conditions: 250-1000 μM, up to 6 hours
Method: as §1, §2

[4] = tested on: human glioblastoma cells (U87MG); assay: PpIX fluorescence accumulation; type: cell-based; conditions: for PpIX accumulation (fluorescence): hydrochloride
Method: as §1, §2

[5] = tested on: human glioblastoma cells (U87MG); assay: PDT efficacy: cell viability (NRU assay) following irradiation; type: cell-based
Method: as §3

[6] = tested on: human epithelial squamous cell carcinoma cells (A431); assay: PpIX fluorescence after varying incubation periods (2, 3 or 4 hours); conditions: for PpIX fluorescence: A431 cells, individual replicates, hydrochloride
Method: as §1

[7] = tested on: human epithelial squamous cell carcinoma cells (A431); assay: Cell viability (NRU assay) after irradiation with varying incubation periods (2, 3 or 4 hours); type: cell-based; conditions: for cell viability: A431 cells, then red light 37 J/cm^2, NRU assay, individual replicates, hydrochloride
Method: Neutral red is an inert dye actively taken up and stored by viable (living) cells, an action which is unable to be performed by non-viable cells, therefore the level of neutral red taken up is directly proportional to the number of viable cells present following a given exposure. Following uptake of the dye, cells are lysed and the level of neutral red quantified using a plate reader.
After the relevant incubation period, the cells were irradiated with red light (37 J/cm^2; 635±2 nm; Aktilite, Galderma, UK).

[8] = tested on: human epithelial squamous cell carcinoma cells (A431); assay: PDT efficacy: cell viability (NRU assay) following irradiation; type: cell-based
Method: as §3

For `CCc1c(O)c(O)cc[n+]1CCOC(=O)CCC(=O)CN.Cl.[Cl-]` [AP2-18, 1-(2-(5-amino-4-oxopentanoyloxy)ethyl)-2-ethyl-3,4-dihydroxypyridinium chloride hydrochloride], the “PpIX accumulation vs ALA or MAL alone or with CP94” value ([1]; A431, 250-1000 μM, up to 6 hours) was “significantly increase PpIX accumulation”, the PpIX accumulation ([1]; 500 μM (each component), exposure time 1 hour) was 21.33 and 33.67 and 22.67 and 28.67 and 33 and 32 and 29 and the PpIX accumulation ([1]; 1000 μM (each component), exposure time 1 hour) was 41.33 and 38.33 and 49.33 and 33.67 and 34.67 and 36.67 and 49 and 51. For the same molecule, the PpIX accumulation ([1]; 1000 μM (each component), exposure time 2 hours) was 58.33 and 69.33 and 58.67 and 63.67 and 78.67 and 97.67 and 93.67, the “reducing cell viability following PDT vs other treatment parameters” value [2] was “significantly better” and the “PpIX accumulation vs ALA or MAL alone or with CP94” value [3] was “significantly increase PpIX accumulation”. The “PpIX accumulation (fluorescence)” value ([4]; 250 μM (combinations: 250 μM each), exposure time 2 hours) was 114.3 and 128.3 and 146.3 and 125.67 and 126.67 and 129.67 and 130.67 and 128.67, the “PpIX accumulation (fluorescence)” value ([4]; 250 μM (combinations: 250 μM each), exposure time 3 hours) was 172 and 199 and 221 and 195 and 196 and 189.33 and 195.33 and 184.33 and the “PpIX accumulation (fluorescence)” value ([4]; 500 μM (combinations: 500 μM each), exposure time 3 hours) was 312 and 308 and 267 and 279 and 251.33 and 271.33 and 273.33. For the same molecule, the “PpIX accumulation (fluorescence)” value ([4]; 1000 μM (combinations: 1000 μM each), exposure time 4 hours) was 519 and 469 and 361 and 447 and 468 and 478 and 456 and 499, the “PpIX accumulation vs ALA or MAL alone or with CP94” value ([4]; 250-1000 μM, up to 6 hours) was “significantly increase PpIX accumulation” and the “PpIX-induced PDT cell kill” value [5] was “highly effective PpIX-induced PDT cell kill”. The “PpIX vs highest doses of ALA or MAL (1000 μM) at 4 hours” value ([6]; A431, 250 μM, 2 hours incubation) was “produced more PpIX”, the “PpIX levels vs other treatment parameters” value ([6]; A431, 1000 μM, four hours incubation) was “statistically significant higher PpIX levels than any other treatment parameters investigated” and the PpIX fluorescence ([6]; 500 μM (each drug), incubation time 2 hours) was 35.33 and 33.33 and 57.67 and 49.67 and 55.67 and 58.67 (2×) and 69.67 and 58.33. The PpIX fluorescence ([6]; 500 μM (each drug), incubation time 3 hours) was 59.33 and 67.33 and 62.33 and 114.33 (2×) and 109.33 and 119.67 and 139.67 and 118.67, the PpIX fluorescence ([6]; 500 μM (each drug), incubation time 4 hours) was 71.67 and 82.67 and 73.67 and 137.67 and 136.67 and 140.67 and 151.67 and 177.67 and 146.67 and the PpIX fluorescence ([6]; 1000 μM (each drug), incubation time 2 hours) was 58.33 and 69.33 and 58.67 (2×) and 63.67 and 78.67 and 97.67 and 93.67 (2×). The PpIX fluorescence ([6]; 1000 μM (each drug), incubation time 3 hours) was 96.33 and 100.33 and 116.33 and 117.33 and 114.33 and 118.33 and 144.67 and 180.67 and 182.67, the PpIX fluorescence ([6]; 1000 μM (each drug), incubation time 4 hours) was 113.67 and 119.67 and 140.67 and 145.67 and 139.67 and 141.67 and 177.67 and 221.67 and 225.67 and the “cell kill on irradiation compared with ALA or MAL” value ([7]; A431, incubation 2, 3 or 4 hours, greatest cytotoxicity at 4 hours) was “statistically significant increases in cell kill”. For the same molecule, the cell viability ([7]; 250 μM (each drug), incubation time 2 hours, 250 µM) was 97.7 and 86.79 and 91.73 and 133.2414 and 62.66 and 106.5847 and 64.29 and 96.8 and 131.2186, the cell viability ([7]; 250 μM (each drug), incubation time 3 hours, 250 µM) was 86.93 and 101.2448 and 79.7 and 62.46 and 60.17 and 62.3481 and 33.56 and 37.89 and 49.02 and 32.65 and 47.7341 and 52.75 and the cell viability ([7]; 250 μM (each drug), incubation time 4 hours, 250 µM) was 7.088 and 6.582 and 5.929 and 7.34 and 6.99 and 6.52 and 32.03 and 32.79 and 31.11. The cell viability ([7]; 500 μM (each drug), incubation time 2 hours, 500 µM) was 12.86 and 12.74 and 16.04 and 53.68 and 42.01 and 55.47 and 60.64 and 70.31 and 124.24, the cell viability ([7]; 500 μM (each drug), incubation time 3 hours, 500 µM) was 102.5418 and 125.9215 and 67.1 and 33.04 and 31.45 and 38.59 and 68.88 and 42.19 and 58.38 and 49.61 and 46.3628 and 69.56 and the cell viability ([7]; 500 μM (each drug), incubation time 4 hours, 500 µM) was 6.023 and 6.336 and 6.646 and 7.159 and 7.63 and 6.693 and 42.88 and 32.5727 and 25.11. For the same molecule, the cell viability ([7]; 1000 μM (each drug), incubation time 2 hours, 1000 µM) was 96.31 and 83.65 and 82.62 and 98.19 and 107.1891 and 53.91 and 80.39 and 46.21 and 97.83, the cell viability ([7]; 1000 μM (each drug), incubation time 3 hours, 1000 µM) was 92.47 and 93.28 and 87.85 and 39.73 and 38.74 and 37.68 and 45.15 and 47.25 and 41.05 and 50.59 and 59.84 and 82.37 and the cell viability ([7]; 1000 μM (each drug), incubation time 4 hours, 1000 µM) was 6.315 and 6.002 and 5.891 and 7.607 and 8.758 and 7.362 and 38.09 and 34.2 and 25.3. The “reduction in cell viability following PDT” value [8] was “significant reductions in cell viability”.
